Laboratory results as given in US12378256B2, “Heterocyclic compound” (Takeda Pharmaceutical Company Limited, priority 2017, dated 2025).

Target: T1, human M1 receptor (hCHRM1) (Homo sapiens, UniProt P11229)
T1 construct: expressed in transfected cells; host or cells: CHO-K1
T1 sequence (P11229 1-460): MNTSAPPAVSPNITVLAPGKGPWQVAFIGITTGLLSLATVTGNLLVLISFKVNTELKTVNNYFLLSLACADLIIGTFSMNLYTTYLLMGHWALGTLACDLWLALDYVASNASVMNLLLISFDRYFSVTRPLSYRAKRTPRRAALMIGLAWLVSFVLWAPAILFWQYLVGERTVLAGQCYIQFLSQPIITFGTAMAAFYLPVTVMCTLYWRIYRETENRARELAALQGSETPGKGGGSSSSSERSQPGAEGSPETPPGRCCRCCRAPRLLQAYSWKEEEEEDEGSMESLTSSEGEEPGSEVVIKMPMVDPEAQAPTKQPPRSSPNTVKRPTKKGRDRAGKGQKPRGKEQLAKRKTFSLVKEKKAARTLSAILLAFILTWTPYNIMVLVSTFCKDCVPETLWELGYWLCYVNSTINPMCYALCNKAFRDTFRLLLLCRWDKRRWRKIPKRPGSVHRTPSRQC
Assay: Measurement of M1 receptor positive allosteric modulator (M1PAM) activity, calcium fluorescence with acetylcholine at EC20
Format: cell-based
Conditions: for activity (%) at 10 μM: 10 μM test compound, 100% = 1 μM acetylcholine, 0% = DMSO; for EC50: CHO-K1 cells expressing hCHRM1, acetylcholine at EC20 (final 0.8-1.0 nM), read-out: IP value (inflection point in the concentration-dependent curve)
Protocol: Measurement of M1 Receptor Positive Allosteric Modulator (M1PAM) Activity
The activity of a test compound in the presence of acetylcholine at EC20 concentration (final concentration 0.8-1.0 nM), which affords an action corresponding to about 20% of the maximum activity, was measured as PAM activity. The method is as follows. CHO-K1 cells stably expressing a human M1 receptor (hCHRM1) were plated on a 384-well black clear bottom plate (BD Falcon) at 5,000 cells/well, and cultured in an incubator at 37° C., 5% CO2 for 1 day. The medium in the cell plate was removed, and assay buffer A containing calcium indicator (Recording medium (DOJINDO LABORATORIES), 0.1% BSA (Wako Pure Chemical Industries, Ltd.), 2.5 μg/mL Fluo-4 AM (DOJINDO LABORATORIES), 0.08% Pluronic F127 (DOJINDO LABORATORIES), 1.25 mM probenecid (DOJINDO LABORATORIES)) was added at 30 μL/well. The cells were left standing in the incubator at 37° C., 5% CO2 for 30 min, and further left standing at room temperature for 30 min. A test compound prepared by diluting with assay buffer B (HBSS (Invitrogen), 20 mM HEPES (Invitrogen), 0.1% BSA) containing 3.2-4.0 nM acetylcholine was added at 10 μL/well, and the fluorescence was measured by FDSS/μCELL (Hamamatsu Photonics K.K.) for 1 min every for 1 second. With the definition that the amount of change in the fluorescence on addition of acetylcholine (final concentration 1 μM) is 100% and that on addition of DMSO instead of a test compound is 0%, the activity (%) of the test compound was calculated, and the inflection point in the concentration-dependent curve of the test compound was calculated as IP values.

activity (%) at 10 μM [%] | EC50 [nM] | SMILES
100 | 4.5 | O=C(NC1CC(F)(F)CCC1O)c1cc(Cc2ccc(-n3cccn3)cc2)c2c(n1)CCO2 (single isomer, unassigned) [Example 27, N-(trans-5,5-difluoro-2-hydroxycyclohexyl)-7-(4-(1H-pyrazol-1-yl)benzyl)-2,3-dihydrofuro[3,2-b]pyridine-5-carboxamide]
107 | 4.3 | O=C(N[C@@H]1CCC(F)(F)C[C@H]1O)c1cc(Cc2ccc(-n3cccn3)cc2)c2c(n1)CCO2 (single isomer, unassigned) [Example 46, N-(trans-4,4-difluoro-2-hydroxycyclohexyl)-7-(4-(1H-pyrazol-1-yl)benzyl)-2,3-dihydrofuro[3,2-b]pyridine-5-carboxamide]
104 | 0.88 | Cn1cc(-c2ccc(C(F)c3cc(C(=O)N[C@H]4CCOC[C@@H]4O)nc4ccoc34)cn2)cn1 (single isomer, unassigned) [Example 51, 1,5-anhydro-2,3-dideoxy-3-(((7-(fluoro(6-(1-methyl-1H-pyrazol-4-yl)pyridin-3-yl)methyl)furo[3,2-b]pyridin-5-yl)carbonyl)amino)-L-threo-pentitol]
106 | 42 | Cn1cc(-c2ccc(C(F)c3cc(C(=O)N[C@H]4CCOC[C@@H]4O)nc4ccoc34)cc2)nn1 (single isomer, unassigned) [Example 56, 1,5-anhydro-2,3-dideoxy-3-(((7-(fluoro(4-(1-methyl-1H-1,2,3-triazol-4-yl)phenyl)methyl)furo[3,2-b]pyridin-5-yl)carbonyl)amino)-L-threo-pentitol]
99 | 1.1 | Cn1cc(-c2ccc(C(F)c3cc(C(=O)N[C@H]4CCCC[C@@H]4O)nc4ccoc34)cc2)nn1 (single isomer, unassigned) [Example 57]
100 | 13 | O=C(N[C@H]1COCC[C@@H]1O)c1cc(Cc2ccc(-n3cccn3)cc2)c2c(n1)CCO2 [Example 3, 1,5-anhydro-2,4-dideoxy-2-(((7-(4-(1H-pyrazol-1-yl)benzyl)-2,3-dihydrofuro[3,2-b]pyridin-5-yl)carbonyl)amino)-L-threo-pentitol]
100 | 7.9 | Cn1ccc(-c2ccc(Cc3cc(C(=O)N[C@H]4COCC[C@@H]4O)nc4c3OCC4)cc2)n1 [Example 8, 1,5-anhydro-2,4-dideoxy-2-(((7-(4-(1-methyl-1H-pyrazol-3-yl)benzyl)-2,3-dihydrofuro[3,2-b]pyridin-5-yl)carbonyl)amino)-L-threo-pentitol]
100 | 10 | Cc1csc(-c2ccc(Cc3cc(C(=O)N[C@H]4CCCC[C@@H]4O)nc4c3OCC4)cc2)n1 [Example 16, N-((1S,2S)-2-hydroxycyclohexyl)-7-(4-(4-methyl-1,3-thiazol-2-yl)benzyl)-2,3-dihydrofuro[3,2-b]pyridine-5-carboxamide]
97 | 12 | Cc1ncc(-c2ccc(Cc3cc(C(=O)N[C@H]4CCCC[C@@H]4O)nc4c3OCC4)cc2)s1 [Example 18, N-((1S,2S)-2-hydroxycyclohexyl)-7-(4-(2-methyl-1,3-thiazol-5-yl)benzyl)-2,3-dihydrofuro[3,2-b]pyridine-5-carboxamide]
100 | 1.6 | Cn1cc(-c2ccc(Cc3cc(C(=O)N[C@H]4COCC[C@@H]4O)nc4ccoc34)cc2)nn1 [Example 21, 1,5-anhydro-2,4-dideoxy-2-(((7-(4-(1-methyl-1H-1,2,3-triazol-4-yl)benzyl)furo[3,2-b]pyridin-5-yl)carbonyl)amino)-L-threo-pentitol]
99 | 1.5 | Cn1cc(-c2ccc(Cc3cc(C(=O)N[C@H]4CCCC[C@@H]4O)nc4ccoc34)cc2)nn1 [Example 23, N-((1S,2S)-2-hydroxycyclohexyl)-7-(4-(1-methyl-1H-1,2,3-triazol-4-yl)benzyl)furo[3,2-b]pyridine-5-carboxamide]
101 | 2.3 | Cn1ccc(-c2ccc(Cc3cc(C(=O)N[C@H]4CCOC[C@@H]4O)nc4c3OCC4)cc2)n1 [Example 28, 1,5-anhydro-2,3-dideoxy-3-(((7-(4-(1-methyl-1H-pyrazol-3-yl)benzyl)-2,3-dihydrofuro[3,2-b]pyridin-5-yl)carbonyl)amino)-L-threo-pentitol]
100 | 2.4 | Cn1cc(-c2ccc(Cc3cc(C(=O)N[C@H]4CCOC[C@@H]4O)nc4ccoc34)cn2)nn1 [Example 34, 1,5-anhydro-2,3-dideoxy-3-(((7-((6-(1-methyl-1H-1,2,3-triazol-4-yl)pyridin-3-yl)methyl)furo[3,2-b]pyridin-5-yl)carbonyl)amino)-L-threo-pentitol]
98 | 1.6 | Cn1cc(-c2ccc(Cc3cc(C(=O)N[C@H]4CCOC[C@@H]4O)nc4ccoc34)cc2)cn1 [Example 40, 1,5-anhydro-2,3-dideoxy-3-(((7-(4-(1-methyl-1H-pyrazol-4-yl)benzyl)furo[3,2-b]pyridin-5-yl)carbonyl)amino)-L-threo-pentitol]
110 | 2.4 | Cc1cc(-c2ccc(Cc3cc(C(=O)N[C@H]4CCOC[C@@H]4O)nc4ccoc34)cc2)cnn1 [Example 43, 1,5-anhydro-2,3-dideoxy-3-(((7-(4-(6-methylpyridazin-4-yl)benzyl)furo[3,2-b]pyridin-5-yl)carbonyl)amino)-L-threo-pentitol]
101 | 1.8 | Cn1cc(-c2ccc(Cc3cc(C(=O)N[C@H]4CCCC[C@@H]4O)nc4c3OCC4)cc2)nn1 [Example 47, N-((1S,2S)-2-hydroxycyclohexyl)-7-(4-(1-methyl-1H-1,2,3-triazol-4-yl)benzyl)-2,3-dihydrofuro[3,2-b]pyridine-5-carboxamide]
103 | 1.1 | O=C(N[C@H]1CCOC[C@@H]1O)c1cc(Cc2ccc(-n3cccn3)cc2)c2occc2n1 [Example 48, 1,5-anhydro-2,3-dideoxy-3-(((7-(4-(1H-pyrazol-1-yl)benzyl)furo[3,2-b]pyridin-5-yl)carbonyl)amino)-L-threo-pentitol]
104 | 2.9 | Cc1nccc(-c2ccc(Cc3cc(C(=O)N[C@H]4CCOC[C@@H]4O)nc4ccoc34)cc2)n1 [Example 49, 1,5-anhydro-2,3-dideoxy-3-(((7-(4-(2-methylpyrimidin-4-yl)benzyl)furo[3,2-b]pyridin-5-yl)carbonyl)amino)-L-threo-pentitol]
104 | 1.6 | Cn1cc(-c2ccc(Cc3cc(C(=O)N[C@H]4CCOC[C@@H]4O)nc4c3OCC4)cn2)cn1 [Example 60, 1,5-anhydro-2,3-dideoxy-3-(((7-((6-(1-methyl-1H-pyrazol-4-yl)pyridin-3-yl)methyl)-2,3-dihydrofuro[3,2-b]pyridin-5-yl)carbonyl)amino)-L-threo-pentitol]
104 | 1.8 | Cn1cc(-c2ccc(Cc3cc(C(=O)N[C@H]4CCCC[C@@H]4O)nc4c3OCC4)cn2)cn1 [Example 61, N-((1S,2S)-2-hydroxycyclohexyl)-7-((6-(1-methyl-1H-pyrazol-4-yl)pyridin-3-yl)methyl)-2,3-dihydrofuro[3,2-b]pyridine-5-carboxamide]
109 | 2.4 | Cc1cc2nc(C(=O)N[C@H]3CCOC[C@@H]3O)cc(Cc3ccc(-c4cn(C)nn4)cc3)c2o1 [Example 64, 1,5-anhydro-2,3-dideoxy-3-(((2-methyl-7-(4-(1-methyl-1H-1,2,3-triazol-4-yl)benzyl)furo[3,2-b]pyridin-5-yl)carbonyl)amino)-L-threo-pentitol]
106 | 8.5 | CNC(=O)c1ccc(Cc2cc(C(=O)N[C@H]3CCOC[C@@H]3O)nc3cc(C)oc23)cc1F [Example 65, 1,5-anhydro-2,3-dideoxy-3-(((7-(3-fluoro-4-(methylcarbamoyl)benzyl)-2-methylfuro[3,2-b]pyridin-5-yl)carbonyl)amino)-L-threo-pentitol]
